Tests used:
Type in all cases: functional
[1] = system: HT-29; assay: Inhibition of growth of human colon tumor cell line (HT-29) after 72 hr of drug exposure
[2] = system: MCF7; assay: Inhibition of the growth of human breast tumor cell line (MCF-7) after 72 hr of drug exposure
[3] = system: A121; assay: Inhibition of growth of human ovarian tumor cell line (A121) after 72 hr of drug exposure
[4] = system: A549; assay: Inhibition of growth of human NSCL non small cell lung carcinoma cell line ([…]) after 72 hr of drug exposure
[5] = system: MCF7R; assay: Inhibition the growth of doxorubicin resistant human breast tumor cell line (MCF-7-R) after 72 hr of drug exposure

Row | SMILES | Inhibition [1] | Inhibition [2] | Inhibition [3] | Inhibition [4] | IC50 [5]
1 | CC(=O)O[C@@]12CO[C@@H]1C[C@H](O)[C@@]1(C)C(=O)[C@H](OC(=O)CCc3cccc(C(=O)c4ccccc4)c3)C3=C(C)C(OC(=O)[C@H](O)[C@@H](NC(=O)c4ccccc4)c4ccccc4)C[C@@](O)([C@@H](OC(=O)c4ccccc4)C12)C3(C)C (stereo not given in full) | 40.8% | 20.7% | 32.8% | 40.8% | 1540 nM
2 | CC(=O)O[C@H]1C(=O)[C@@]2(C)C([C@H](OC(=O)c3ccccc3)[C@]3(O)CC(OC(=O)[C@H](O)[C@@H](NC(=O)c4ccccc4)c4ccccc4)C(C)=C1C3(C)C)[C@]1(OC(C)=O)CO[C@@H]1C[C@@H]2OC(=O)CCc1cccc(C(=O)c2ccccc2)c1 (stereo not given in full) | 6.5% | 2.4% | 8.8% | 13% | 450 nM
3 | CC(=O)O[C@H]1C(=O)[C@@]2(C)[C@H]([C@H](OC(=O)c3ccccc3)[C@]3(O)C[C@H](OC(=O)[C@H](O)[C@@H](NC(=O)c4ccccc4)c4ccccc4)C(C)=C1C3(C)C)[C@]1(OC(C)=O)CO[C@@H]1C[C@@H]2O [PACLITAXEL] | 3.2% | 1.7% | 6.1% | 3.6% | 300 nM
